Publication PMC9967584 (2023)

Test system: Cocaine-targeting aptamer (DNA, aptamer) AGACAAGGAAAATCCTTCAATGAAGTGGGTCG
Assay: square wave voltammetry, aptamer on gold microelectrode
Conditions: PBS; MCH-passivated; non-coated and PSB-coated sensors same calibration, modified Langmuir fit, constant not given

`COC(=O)[C@H]1[C@@H](OC(=O)c2ccccc2)C[C@@H]2CC[C@H]1N2C` was tested, and the binding was “yes”.
